The values that follow come from ChEMBL document CHEMBL4483862, “Open-source discovery of chemical leads for next-generation chemoprotective antimalarials” (2018).

A value given as a limit tells only on which side of the number the result lay.

The test system of this assay is Plasmodium berghei. Briefly: Luciferase/luciferin-expressing antifolate-resistant parasites were used to infect a culture of HepG2 cells that were pre-incubated with compounds. Infected hepatocytes emit light due to the luciferase reaction. Assay results are presented as the percent inhibition of light emission compared to control. […]. It is filed as functional. Conditions: sporozoite; for IC90: read-out: LUCIFERASE INFECTION ASSAY - IC90.

The mark [1] stands for this setting: read-out: LUCIFERASE INFECTION ASSAY - IC50.

Take `CC(C)(C)c1cc(C(=O)OCC(=O)N2CCCc3ccccc32)cc(C(C)(C)C)c1`: the 90% effect concentration (IC90) (usually the concentration at which the effect reaches the 90% level) amounted to 9.87 µM. Moreover, the IC50 (usually the concentration needed to halve the response being measured) (FFLUC_HILL_SLOPE 12.2, FFLUC_R_SQUARED 0.329, PBLUC_HILL_SLOPE 3.02, PBLUC_R_SQUARED 0.491, read-out: LUCIFERASE INFECTION ASSAY - IC50) is 4.77 µM.
For the molecule `CCOC(=O)c1c(Sc2ccccc2)cnn1C(=O)Nc1cccc(Cl)c1`, the 90% effect concentration (IC90) was more than 8.21 µM. Further, the half-inhibitory concentration (IC50) (PBLUC_HILL_SLOPE 0.46, PBLUC_R_SQUARED 0.851, read-out: LUCIFERASE INFECTION ASSAY - IC50) was more than 8.21 µM.
With `O=c1nc(CN2CCN(c3ccc(C(F)(F)F)cn3)CC2)[nH]c2ccccc12`, the concentration for an effect of 90% (IC90) was more than 10 µM. The 50% inhibitory concentration (IC50) under setting [1] was more than 10 µM.
On to `Cc1nn(-c2ccc(C(=O)Nc3nc(CN4CCCC4)cs3)cc2)c(C)c1Cl`, for which the 90% effect concentration (IC90) came to 7.87 µM. Further, the IC50 (PBLUC_HILL_SLOPE 4.86, PBLUC_R_SQUARED 0.713, read-out: LUCIFERASE INFECTION ASSAY - IC50) came to 5.01 µM.
Consider `Cc1ccc2cc(CN3CCCCC3C(N)=O)c(Cl)nc2c1C` (configuration not stated), for which the IC90 was more than 10 µM. Besides, the concentration for half-maximal inhibition (IC50) under setting [1] is more than 10 µM.
Take `CC(C)(C)c1cc(/C=C2\C=c3ccccc3=C2O)cc(C(C)(C)C)c1O`: the concentration for an effect of 90% (IC90) is more than 9.47 µM. Moreover, the IC50 (FFLUC_HILL_SLOPE 9.15, FFLUC_R_SQUARED 0.521, read-out: LUCIFERASE INFECTION ASSAY - IC50) is more than 9.47 µM.
Regarding `CC(C)Cn1c(SCC(=O)Nc2ccccc2C(=O)OC2CC(C)CCC2C(C)C)nnc1-c1cccc(S(=O)(=O)N2CCOCC2)c1` (configuration not stated), the 90% effect concentration (IC90) is more than 10 µM. Also, for the setting “PBLUC_HILL_SLOPE 3.05, PBLUC_R_SQUARED 0.72, read-out: LUCIFERASE INFECTION ASSAY - IC50”, the IC50 was found to be 5.79 µM.
For the molecule `Cc1ccc(S(=O)(=O)N(Cc2ccc(C(=O)NC3CC3)cc2)C2CC2)c(C)c1`, the concentration for an effect of 90% (IC90) is 0.498 µM. The IC50 (PBLUC_HILL_SLOPE 1.22, PBLUC_R_SQUARED 0.762, read-out: LUCIFERASE INFECTION ASSAY - IC50) turned out to be 0.0818 µM.
For the molecule `O=S(=O)(c1c(Cl)cc(Br)cc1Cl)N1CCN(C(=S)NC2CC3CCC2C3)CC1` (configuration not stated), the concentration for an effect of 90% (IC90) was more than 10 µM. For the same molecule, for the setting “PBLUC_HILL_SLOPE 16.2, PBLUC_R_SQUARED 0.114, read-out: LUCIFERASE INFECTION ASSAY - IC50”, the IC50 came out at 8.93 µM.
On to `CNC(=O)NC(=O)C(C)N1CCN(CCc2cccs2)CC1` (configuration not stated), for which the 90% effect concentration (IC90) was more than 10 µM. Moreover, the IC50 under setting [1] is more than 10 µM.
For the molecule `CN1CCN(c2ccc(-c3cn4c(-c5ccccc5Cl)cnc4cn3)cn2)CC1`, the concentration for an effect of 90% (IC90) was more than 8.15 µM. The half-maximal inhibitory concentration (IC50) (PBLUC_HILL_SLOPE 0.491, PBLUC_R_SQUARED 0.57, read-out: LUCIFERASE INFECTION ASSAY - IC50) was found to be 3.67 µM.
Regarding `Cc1cccc(N2CCN(c3cc(C)nc4c(-c5ccccc5)c(C)nn34)CC2)n1`, the IC90 was more than 8.28 µM. Further, the half-maximal inhibitory concentration (IC50) under setting [1] was more than 8.28 µM.
Consider `COc1ccc(Nc2nccc3nc(-c4cccc(OC(F)(F)F)c4)[nH]c23)cc1OC`, for which the concentration for an effect of 90% (IC90) is more than 10 µM. Also, the IC50 under setting [1] is 3.54 µM.
Take `CCCCNC(=O)c1c(NC(=O)COc2ccccc2)nc2ccccn12`: the 90% effect concentration (IC90) is more than 9.01 µM. The IC50 (FFLUC_HILL_SLOPE 15.1, FFLUC_R_SQUARED 0.601, PBLUC_HILL_SLOPE 2.91, PBLUC_R_SQUARED 0.515, read-out: LUCIFERASE INFECTION ASSAY - IC50) was 5.13 µM.
For `O=C(O)c1cnc2cc3c(cc2c1O)OCCO3`, the IC90 is more than 10 µM. Besides, the IC50 (PBLUC_HILL_SLOPE 2.36, 2.10, PBLUC_R_SQUARED 0.249, 0.136, read-out: LUCIFERASE INFECTION ASSAY - IC50) worked out at 7.92 µM.
With `Oc1cc(OCCN2CCCCC2)ccc1-c1n[nH]cc1-c1ccccc1`, the IC90 was more than 9.08 µM. Under setting [1], the concentration for half-maximal inhibition (IC50) is more than 9.08 µM.
`CCC1CCCCN1CC(O)COC(c1ccc(Cl)cc1)c1ccc(Cl)cc1` (configuration not stated): the IC90 was more than 10 µM. Further, where the note is “PBLUC_HILL_SLOPE 1.73, PBLUC_R_SQUARED 0.487, read-out: LUCIFERASE INFECTION ASSAY - IC50”, the IC50 was found to be 5.6 µM.
Turning to `C=CCN(c1ccccc1Cl)S(=O)(=O)c1cc(C(=O)NCc2cn3cc(Cl)ccc3n2)ccc1Cl`, the 90% effect concentration (IC90) is more than 10 µM. Besides, the concentration for half-maximal inhibition (IC50) (FFLUC_HILL_SLOPE 155, FFLUC_R_SQUARED 0.0996, read-out: LUCIFERASE INFECTION ASSAY - IC50) was more than 10 µM.
In the case of `N#CC(c1nc(-c2ccc(Cl)cc2)cs1)N1CCc2ccccc2C1` (configuration not stated), the IC90 was more than 10 µM. The IC50 under setting [1] was more than 10 µM.
For `O=C(Cn1cnc2sccc2c1=O)Nc1nc(-c2ccccn2)cs1`, the concentration for an effect of 90% (IC90) is more than 10 µM. In addition, the IC50 (HEPG2TOX_HILL_SLOPE 0.285, HEPG2TOX_R_SQUARED 0.277, PBLUC_HILL_SLOPE 15.4, PBLUC_R_SQUARED 0.28, read-out: LUCIFERASE INFECTION ASSAY - IC50) turned out to be 9.25 µM.
`CCN(CC)Cc1ccccc1CNC(=O)c1cccc2ccccc12`: the concentration for an effect of 90% (IC90) was more than 10 µM. Besides, the IC50 under setting [1] was more than 10 µM.
Take `CCOC(=O)c1ccsc1NC(=O)CNc1ccc(Br)cc1`: the IC90 is more than 10 µM. Moreover, the IC50 (HEPG2TOX_HILL_SLOPE 11.3, HEPG2TOX_R_SQUARED 0.575, read-out: LUCIFERASE INFECTION ASSAY - IC50) is more than 10 µM.
Consider `O=C(COC(=O)c1ccc(-n2ncc(Cl)c(Cl)c2=O)cc1)Nc1ccc(F)cc1`, for which the IC90 was more than 10 µM. For the same molecule, under setting [1], the IC50 was more than 10 µM.
With `CCOC(=O)c1c(C)[nH]c(C(=O)C(C)N2CCN(c3ccccc3O)CC2)c1C` (configuration not stated), the concentration for an effect of 90% (IC90) is more than 10 µM. Moreover, the IC50 (HEPG2TOX_HILL_SLOPE 6.06, HEPG2TOX_R_SQUARED 0.507, PBLUC_HILL_SLOPE 4.15, PBLUC_R_SQUARED 0.577, read-out: LUCIFERASE INFECTION ASSAY - IC50) was determined as 7.31 µM.
For the molecule `CS(=O)(=O)c1ccc2c(c1)sc1nc(-c3ccccc3Cl)cn12`, the IC90 was more than 10 µM. Besides, the IC50 (PBLUC_HILL_SLOPE 1.82, PBLUC_R_SQUARED 0.22, read-out: LUCIFERASE INFECTION ASSAY - IC50) is 4.47 µM.
For `CN(C)c1cccc(-c2cnc3cnc(-c4ccncc4)cn23)c1`, the IC90 is more than 10.5 µM. Moreover, the IC50 (PBLUC_HILL_SLOPE 2.07, PBLUC_R_SQUARED 0.374, read-out: LUCIFERASE INFECTION ASSAY - IC50) is 6.53 µM.
As to `Cc1nc(C(C)(C)C)nc2sc(C(=O)N(C)CC(=O)Nc3cccc(F)c3)c(C)c12`, the 90% effect concentration (IC90) turned out to be 3.71 µM. The concentration for half-maximal inhibition (IC50) (PBLUC_HILL_SLOPE 21.5, PBLUC_R_SQUARED 0.514, read-out: LUCIFERASE INFECTION ASSAY - IC50) is 3.35 µM.
With `CCC(=O)c1ccc(OCCCCn2cnc3ccccc32)cc1`, the concentration for an effect of 90% (IC90) is more than 10 µM. Also, the concentration for half-maximal inhibition (IC50) under setting [1] was more than 10 µM.
Consider `Cc1ccc(NC(=O)C(Sc2nnc3n(-c4ccccc4)c(=O)c4ccccc4n23)c2ccccc2)c([N+](=O)[O-])c1` (configuration not stated), for which the 90% effect concentration (IC90) is more than 10 µM. In addition, under “PBLUC_HILL_SLOPE 11.5, 36.4, PBLUC_R_SQUARED 0.176, 0.319, read-out: LUCIFERASE INFECTION ASSAY - IC50”, the IC50 worked out at 9.56 µM.
Take `CCC(C)c1ccc(-c2cc(C(=O)OCC(=O)N3c4ccccc4NC(=O)C3(C)C)c3ccccc3n2)cc1` (configuration not stated): the IC90 is more than 10 µM. Moreover, the half-inhibitory concentration (IC50) under setting [1] was determined as 8.86 µM.
As to `CC(Nc1ccc(Cc2nc3ccccc3s2)cc1)C(=O)N1CCNC1=O` (configuration not stated), the IC90 was determined as 9.74 µM. The concentration for half-maximal inhibition (IC50) (PBLUC_HILL_SLOPE 6.15, PBLUC_R_SQUARED 0.163, read-out: LUCIFERASE INFECTION ASSAY - IC50) was 6.81 µM.
Turning to `Nc1nc(Sc2ncnc3sccc23)nc2sccc12`, the IC90 was found to be 8.89 µM. In addition, the half-inhibitory concentration (IC50) (PBLUC_HILL_SLOPE 20, PBLUC_R_SQUARED 0.321, read-out: LUCIFERASE INFECTION ASSAY - IC50) came out at 7.96 µM.
Consider `Cc1ccccc1-c1cc2c(cn1)nc(NCc1ccccc1F)n2C`, for which the IC90 is 8.53 µM. Also, the IC50 (HEPG2TOX_HILL_SLOPE 2.16, HEPG2TOX_R_SQUARED 0.829, PBLUC_HILL_SLOPE 2.78, PBLUC_R_SQUARED 0.577, read-out: LUCIFERASE INFECTION ASSAY - IC50) was 3.87 µM.
In the case of `COc1ccc(CNc2nc3cnc(Nc4ccc(OC(F)(F)F)cc4)cc3n2C)cc1OC`, the concentration for an effect of 90% (IC90) was more than 10 µM. Further, the IC50 under setting [1] was more than 10 µM.
Consider `COc1ccc(C2c3ccc4ccccc4c3OC(=N)C2C#N)cc1` (configuration not stated), for which the IC90 was more than 10 µM. Under setting [1], the half-maximal inhibitory concentration (IC50) is more than 10 µM.
Take `CCCN1CCCC(NC(=S)Nc2ccc(Br)cc2C)C1` (configuration not stated): the concentration for an effect of 90% (IC90) was more than 8.91 µM. Besides, the concentration for half-maximal inhibition (IC50) under setting [1] is more than 8.91 µM.
`Cc1ccccc1-n1nnc(C(=O)Nc2cccc(Br)c2)c1N`: the concentration for an effect of 90% (IC90) was 4.24 µM. Also, for the setting “PBLUC_HILL_SLOPE 0.945, PBLUC_R_SQUARED 0.824, read-out: LUCIFERASE INFECTION ASSAY - IC50”, the half-inhibitory concentration (IC50) amounted to 0.414 µM.
Regarding `CNS(=O)(=O)c1cccc(C(=O)Nc2ccc(Cl)c(C(F)(F)F)c2)c1`, the IC90 is more than 10 µM. Moreover, the IC50 (HEPG2TOX_HILL_SLOPE 0.613, HEPG2TOX_R_SQUARED 0.555, PBLUC_HILL_SLOPE 3.22, PBLUC_R_SQUARED 0.568, read-out: LUCIFERASE INFECTION ASSAY - IC50) came to 7.21 µM.
As to `COc1cc2c(c(OC)c1OC)Cc1cc(OC)c(OC)c(OC)c1C2`, the concentration for an effect of 90% (IC90) was 7.66 µM. Besides, the 50% inhibitory concentration (IC50) (PBLUC_HILL_SLOPE 3.89, PBLUC_R_SQUARED 0.32, read-out: LUCIFERASE INFECTION ASSAY - IC50) was 4.36 µM.
For the molecule `Cc1cc(C)nc(-n2nc(C)cc2NC(=O)CN2CCc3ccccc3C2)n1`, the concentration for an effect of 90% (IC90) was more than 10 µM. In addition, the IC50 (HEPG2TOX_HILL_SLOPE 7.28, HEPG2TOX_R_SQUARED 0.662, read-out: LUCIFERASE INFECTION ASSAY - IC50) was more than 10 µM.
In the case of `NC(=O)N1CCCC(C(=O)N2CCCC(c3nc4ccccc4s3)C2)C1` (configuration not stated), the IC90 was more than 10 µM. Besides, the IC50 under setting [1] is more than 10 µM.
